# According to publication PMC7220823 (Chemistry (Weinheim an der Bergstrasse, Germany), 2020):
# Assays:
# [1] = molecular target: DncV (Vibrio cholerae serotype O1, UniProt Q9KVG7); test: DncV-mediated CDN synthesis, kinetics by HPLC; assay type: biochemical
# [2] = molecular target: rocR (Pseudomonas aeruginosa, UniProt Q9HX69); test: rocR-mediated CDN hydrolysis monitored by HPLC; assay type: biochemical, P. aeruginosa; conditions: 100 nM rocR, 10 μM CDN
# [3] = parent nucleosides, from previous publications; cited from earlier work
# [4] = 500 μM NTP, 37 °C, HPLC, CIAP-quenched, mean ± SD
# Sequence of rocR (Q9HX69 whole entry): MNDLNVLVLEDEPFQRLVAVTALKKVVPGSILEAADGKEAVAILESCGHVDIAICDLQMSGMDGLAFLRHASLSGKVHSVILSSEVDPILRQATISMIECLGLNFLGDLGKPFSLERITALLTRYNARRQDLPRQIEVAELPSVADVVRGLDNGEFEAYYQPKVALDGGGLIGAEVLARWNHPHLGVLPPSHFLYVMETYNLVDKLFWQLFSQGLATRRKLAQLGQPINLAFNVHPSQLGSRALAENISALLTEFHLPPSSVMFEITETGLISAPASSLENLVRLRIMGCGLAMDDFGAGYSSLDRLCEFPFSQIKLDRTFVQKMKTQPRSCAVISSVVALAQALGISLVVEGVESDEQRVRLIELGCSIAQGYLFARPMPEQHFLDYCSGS
# Sequence of DncV (Q9KVG7 whole entry): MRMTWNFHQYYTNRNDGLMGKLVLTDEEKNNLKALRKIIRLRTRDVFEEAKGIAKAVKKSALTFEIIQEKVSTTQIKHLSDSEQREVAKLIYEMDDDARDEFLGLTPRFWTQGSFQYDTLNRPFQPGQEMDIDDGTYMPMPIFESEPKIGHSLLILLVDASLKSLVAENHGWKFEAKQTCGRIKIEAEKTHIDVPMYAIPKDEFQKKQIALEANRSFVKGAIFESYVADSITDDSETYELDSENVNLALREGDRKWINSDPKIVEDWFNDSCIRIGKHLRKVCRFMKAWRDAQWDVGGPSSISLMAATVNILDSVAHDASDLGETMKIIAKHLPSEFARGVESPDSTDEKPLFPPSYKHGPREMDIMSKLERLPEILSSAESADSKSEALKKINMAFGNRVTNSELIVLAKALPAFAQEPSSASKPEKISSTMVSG
structure (smiles),measurement,setting,value
Nc1nc2c(ncn2[C@@H]2O[C@@H]3COP(=O)(O)O[C@H]4[C@@H](O)[C@H](n5cnc6c(=O)[nH]c(N)nc65)O[C@@H]4COP(=O)(O)O[C@H]3[C@H]2O)c(=O)[nH]1 [c-di-GMP],"k1 (formation of first phosphodiester linkage, S to I1)",[1]; [4],(7.1 ±2.3) ×10^−6 μM^−1s^−1
same,k2 (cyclization of intermediate I1 to product CDN),[1]; [4],(7.4±2.1) ×10^−2 s^−1
same,k3 (degradation of intermediate pppNpN to pNpN),[1]; [4],(6.4±0.3) ×10^−4 s^−1
same,k2/k3,[1]; product formation versus degradation of the intermediate,116
same,time to complete cleavage by rocR,[2],~3 min
same,k1 (enzyme/substrate association),[2]; mean ± SD,3.96 ± 0.07 µM⁻¹ s⁻¹
same,k2 (cleavage reaction),[2]; mean ± SD,0.76 ± 0.03 s⁻¹
same,k−1 (enzyme/substrate dissociation),[2]; mean ± SD,1.15 ± 0.21 s⁻¹
Nc1nc2c([C@@H]3O[C@H](CO)[C@@H](O)[C@H]3O)snc2c(=O)[nH]1 [^tzG],ε,[3],4870 M⁻¹ cm⁻¹
same,λabs^max,[3],333 nm
same,λem^max,[3],459 nm
same,ϕ (emission quantum yield),[3],2.5×10^−1
same,ϕε,[3],1203
